Measured values published in patent US9695155B2, “Herbicidal substituted pyrimidinyloxy benzene compounds” (E. I. DU PONT DE NEMOURS AND COMPANY, priority 2013, dated 2017).

What was measured:
[1] = system: rice; experiment: Test B flooded paddy test; format: in vivo, Oryza sativa; conditions: Flood, 250 g ai/ha; 0 to 100 scale where 0 is no effect and 100 is complete control
Method in brief: (§1)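 Post-emergence paddy-water application at the 2-leaf stage, with 3 cm flood kept for the whole test. Response was judged visually relative to controls after 13 to 15 greenhouse days, 0 indicating no effect and 100 complete control.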

[2] = system: Heteranthera limosa; experiment: Test B flooded paddy test; format: in vivo; conditions: Flood, 250 g ai/ha; 0 to 100 scale where 0 is no effect and 100 is complete control
Method in brief: as §1

[3] = system: large (Lg) crabgrass; experiment: Test A preemergence; format: in vivo, Digitaria sanguinalis; conditions: for Crabgrass, Large plant response rating: 500 g ai/ha
Method in brief: (§2)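 Injury scores run from 0, no effect, to 100, complete control, judged by eye against untreated plants roughly 10 days after treatment. Chemicals carried a surfactant in a non-phytotoxic solvent and went onto loam–sand soil preemergence or onto one- to two-leaf seedlings postemergence.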

[4] = system: corn; experiment: Test A postemergence; format: in vivo, Zea mays
Method in brief: as §2

[5] = system: velvetleaf; experiment: Test A preemergence; format: in vivo, Abutilon theophrasti; conditions: for Velvetleaf plant response rating: 500 g ai/ha
Method in brief: as §2

[6] = system: barnyardgrass; experiment: Test A postemergence; format: in vivo, Echinochloa crus-galli
Method in brief: as §2

[7] = system: pigweed; experiment: Test A postemergence; format: in vivo, Amaranthus retroflexus
Method in brief: as §2

[8] = system: giant foxtail; experiment: Test A preemergence; format: in vivo, Setaria faberii; conditions: for Foxtail, Giant plant response rating: 500 g ai/ha
Method in brief: as §2

[9] = system: barnyardgrass; experiment: Test B flooded paddy test; format: in vivo, Echinochloa crus-galli; conditions: Flood, 250 g ai/ha; 0 to 100 scale where 0 is no effect and 100 is complete control
Method in brief: as §1

[10] = system: morningglory; experiment: Test A postemergence; format: in vivo, Ipomoea spp.
Method in brief: as §2

[11] = system: wheat; experiment: Test A postemergence; format: in vivo, Triticum aestivum
Method in brief: as §2

[12] = system: velvetleaf; experiment: Test A postemergence; format: in vivo, Abutilon theophrasti
Method in brief: as §2

[13] = system: barnyardgrass; experiment: Test A preemergence; format: in vivo, Echinochloa crus-galli; conditions: for Barnyardgrass plant response rating: 500 g ai/ha
Method in brief: as §2

[14] = system: pigweed; experiment: Test A preemergence; format: in vivo, Amaranthus retroflexus; conditions: for Pigweed plant response rating: 500 g ai/ha
Method in brief: as §2

[15] = system: corn; experiment: Test A preemergence; format: in vivo, Zea mays; conditions: for Corn plant response rating: 500 g ai/ha
Method in brief: as §2

[16] = system: morningglory; experiment: Test A preemergence; format: in vivo, Ipomoea spp.; conditions: for Morningglory plant response rating: 500 g ai/ha
Method in brief: as §2

[17] = system: large (Lg) crabgrass; experiment: Test A postemergence; format: in vivo, Digitaria sanguinalis
Method in brief: as §2

[18] = system: wheat; experiment: Test A preemergence; format: in vivo, Triticum aestivum; conditions: for Wheat plant response rating: 500 g ai/ha
Method in brief: as §2

[19] = system: sedge, umbrella; experiment: Test B flooded paddy test; format: in vivo, Cyperus difformis; conditions: Flood, 250 g ai/ha; 0 to 100 scale where 0 is no effect and 100 is complete control
Method in brief: as §1

[20] = system: giant foxtail; experiment: Test A postemergence; format: in vivo, Setaria faberii
Method in brief: as §2

[21] = 0 to 100 scale where 0 is no effect and 100 is complete control
[22] = 125 g ai/ha, 0 to 100 scale where 0 is no effect and 100 is complete control
[23] = 500 g ai/ha, 0 to 100 scale where 0 is no effect and 100 is complete control
[24] = 0 to 100 scale, 0 no effect, 100 complete control, approx. 10 days
[25] = 500 g ai/ha, 0 to 100 scale, 0 no effect, 100 complete control

## COc1cnn(-c2ccccc2Oc2ncc(Cl)cn2)c1 [Compound 186]
[1]
  Plant response rating, Rice: 0
[2]
  Plant response rating, Ducksalad: 0
[3]; 125 g ai/ha
  Crabgrass, Large plant response rating (0 to 100 scale): 100
[3]; [21]
  Crabgrass, Large plant response rating: 100
[4]; [22]
  Corn plant response rating: 0
[4]; [23]
  Plant response rating, Corn: 30
[5]; 125 g ai/ha
  Velvetleaf plant response rating (0 to 100 scale): 70
[5]; [21]
  Velvetleaf plant response rating: 100
[6]; [22]
  Barnyardgrass plant response rating: 20
[6]; [23]
  Plant response rating, Barnyardgrass: 70
[7]; [22]
  Pigweed plant response rating: 100
[7]; [23]
  Plant response rating, Pigweed: 100
[8]; 125 g ai/ha
  Foxtail, Giant plant response rating (0 to 100 scale): 80
[8]; [21]
  Foxtail, Giant plant response rating: 100
[9]
  Plant response rating, Barnyardgrass: 0
[10]; [22]
  Morningglory plant response rating: 60
[10]; [23]
  Plant response rating, Morningglory: 100
[11]; [22]
  Wheat plant response rating: 0
[11]; [23]
  Plant response rating, Wheat: 60
[12]; [22]
  Velvetleaf plant response rating: 80
[12]; [23]
  Plant response rating, Velvetleaf: 90
[13]; 125 g ai/ha
  Barnyardgrass plant response rating (0 to 100 scale, 0 is no effect, 100 is complete control): 30
[13]; [21]
  Barnyardgrass plant response rating: 100
[14]; 125 g ai/ha
  Pigweed plant response rating (0 to 100 scale): 100
[14]; [21]
  Pigweed plant response rating: 100
[15]; 125 g ai/ha
  Corn plant response rating (0 to 100 scale): 0
[15]; [21]
  Corn plant response rating: 0
[16]; 125 g ai/ha
  Morningglory plant response rating (0 to 100 scale): 0
[16]; [21]
  Morningglory plant response rating: 20
[17]; [22]
  Crabgrass, Large plant response rating: 40
[17]; [23]
  Plant response rating, Crabgrass, Large: 70
[18]; 125 g ai/ha
  Wheat plant response rating (0 to 100 scale): 0
[18]; [21]
  Wheat plant response rating: 20
[19]
  Plant response rating, Sedge, Umbrella: 0
[20]; [22]
  Foxtail, Giant plant response rating: 20
[20]; [23]
  Plant response rating, Foxtail, Giant: 80

## FC(F)c1cccc(Oc2ncc(Br)cn2)c1-n1cc(Cl)cn1 [Compound 210]
[1]
  Plant response rating, Rice: 15
[2]
  Plant response rating, Ducksalad: 75
[3]; 125 g ai/ha
  Crabgrass, Large plant response rating (0 to 100 scale): 100
[3]; [21]
  Crabgrass, Large plant response rating: 100
[4]; [22]
  Corn plant response rating: 10
[4]; [23]
  Plant response rating, Corn: 30
[5]; 125 g ai/ha
  Velvetleaf plant response rating (0 to 100 scale): 20
[5]; [21]
  Velvetleaf plant response rating: 60
[6]; [22]
  Barnyardgrass plant response rating: 20
[6]; [23]
  Plant response rating, Barnyardgrass: 40
[7]; [22]
  Pigweed plant response rating: 100
[7]; [23]
  Plant response rating, Pigweed: 100
[8]; 125 g ai/ha
  Foxtail, Giant plant response rating (0 to 100 scale): 100
[8]; [21]
  Foxtail, Giant plant response rating: 100
[9]
  Plant response rating, Barnyardgrass: 0
[10]; [22]
  Morningglory plant response rating: 20
[10]; [23]
  Plant response rating, Morningglory: 30
[11]; [22]
  Wheat plant response rating: 0
[11]; [23]
  Plant response rating, Wheat: 0
[12]; [22]
  Velvetleaf plant response rating: 60
[12]; [23]
  Plant response rating, Velvetleaf: 80
[13]; 125 g ai/ha
  Barnyardgrass plant response rating (0 to 100 scale, 0 is no effect, 100 is complete control): 10
[13]; [21]
  Barnyardgrass plant response rating: 70
[14]; 125 g ai/ha
  Pigweed plant response rating (0 to 100 scale): 100
[14]; [21]
  Pigweed plant response rating: 100
[15]; 125 g ai/ha
  Corn plant response rating (0 to 100 scale): 0
[15]; [21]
  Corn plant response rating: 0
[16]; 125 g ai/ha
  Morningglory plant response rating (0 to 100 scale): 0
[16]; [21]
  Morningglory plant response rating: 0
[17]; [22]
  Crabgrass, Large plant response rating: 40
[17]; [23]
  Plant response rating, Crabgrass, Large: 70
[18]; 125 g ai/ha
  Wheat plant response rating (0 to 100 scale): 0
[18]; [21]
  Wheat plant response rating: 0
[19]
  Plant response rating, Sedge, Umbrella: 60
[20]; [22]
  Foxtail, Giant plant response rating: 30
[20]; [23]
  Plant response rating, Foxtail, Giant: 60

## Clc1cnc(Oc2ccccc2-n2cc(-c3ccccc3)cn2)nc1 [Compound 22]
[1]
  Plant response rating, Rice: 40
[2]
  Plant response rating, Ducksalad: 65
[3]; [22]
  Plant response rating, Crabgrass, Large: 20
[3]; [24]
  Crabgrass, Large plant response rating: 90
[4]; [22]
  Plant response rating, Corn: 0
[4]; [25]
  Plant response rating, Corn: 30
[5]; [22]
  Plant response rating, Velvetleaf: 0
[5]; [24]
  Velvetleaf plant response rating: 20
[6]; [22]
  Plant response rating, Barnyardgrass: 50
[6]; [25]
  Plant response rating, Barnyardgrass: 70
[7]; [22]
  Plant response rating, Pigweed: 50
[7]; [25]
  Plant response rating, Pigweed: 100
[8]; [22]
  Plant response rating, Foxtail, Giant: 20
[8]; [24]
  Foxtail, Giant plant response rating: 90
[9]
  Plant response rating, Barnyardgrass: 20
[10]; [22]
  Plant response rating, Morningglory: 80
[10]; [25]
  Plant response rating, Morningglory: 90
[11]; [22]
  Plant response rating, Wheat: 0
[11]; [25]
  Plant response rating, Wheat: 0
[12]; [22]
  Plant response rating, Velvetleaf: 50
[12]; [25]
  Plant response rating, Velvetleaf: 100
[13]; [22]
  Plant response rating, Barnyardgrass: 0
[13]; [24]
  Barnyardgrass plant response rating: 20
[14]; [22]
  Plant response rating, Pigweed: 20
[14]; [24]
  Pigweed plant response rating: 90
[15]; [22]
  Plant response rating, Corn: 0
[15]; [24]
  Corn plant response rating: 0
[16]; [22]
  Plant response rating, Morningglory: 0
[16]; [24]
  Morningglory plant response rating: 0
[17]; [22]
  Plant response rating, Crabgrass, Large: 30
[17]; [25]
  Plant response rating, Crabgrass, Large: 70
[18]; [22]
  Plant response rating, Wheat: 0
[18]; [24]
  Wheat plant response rating: 0
[19]
  Plant response rating, Sedge, Umbrella: 80
[20]; [22]
  Plant response rating, Foxtail, Giant: 40
[20]; [25]
  Plant response rating, Foxtail, Giant: 90

## N#Cc1cnc(Oc2ccccc2-n2cccn2)nc1 [Compound 226]
[1]
  Plant response rating, Rice: 0
[2]
  Plant response rating, Ducksalad: 0
[3]; 125 g ai/ha
  Crabgrass, Large plant response rating (0 to 100 scale): 0
[3]; [21]
  Crabgrass, Large plant response rating: 0
[4]; [22]
  Corn plant response rating: 0
[4]; [23]
  Plant response rating, Corn: 0
[5]; 125 g ai/ha
  Velvetleaf plant response rating (0 to 100 scale): 0
[5]; [21]
  Velvetleaf plant response rating: 0
[6]; [22]
  Barnyardgrass plant response rating: 0
[6]; [23]
  Plant response rating, Barnyardgrass: 0
[7]; [22]
  Pigweed plant response rating: 0
[7]; [23]
  Plant response rating, Pigweed: 10
[8]; 125 g ai/ha
  Foxtail, Giant plant response rating (0 to 100 scale): 0
[8]; [21]
  Foxtail, Giant plant response rating: 0
[9]
  Plant response rating, Barnyardgrass: 0
[10]; [22]
  Morningglory plant response rating: 0
[10]; [23]
  Plant response rating, Morningglory: 0
[11]; [22]
  Wheat plant response rating: 0
[11]; [23]
  Plant response rating, Wheat: 0
[12]; [22]
  Velvetleaf plant response rating: 0
[12]; [23]
  Plant response rating, Velvetleaf: 10
[13]; 125 g ai/ha
  Barnyardgrass plant response rating (0 to 100 scale, 0 is no effect, 100 is complete control): 0
[13]; [21]
  Barnyardgrass plant response rating: 0
[14]; 125 g ai/ha
  Pigweed plant response rating (0 to 100 scale): 0
[14]; [21]
  Pigweed plant response rating: 0
[15]; 125 g ai/ha
  Corn plant response rating (0 to 100 scale): 0
[15]; [21]
  Corn plant response rating: 0
[16]; 125 g ai/ha
  Morningglory plant response rating (0 to 100 scale): 0
[16]; [21]
  Morningglory plant response rating: 0
[17]; [22]
  Crabgrass, Large plant response rating: 0
[17]; [23]
  Plant response rating, Crabgrass, Large: 0
[18]; 125 g ai/ha
  Wheat plant response rating (0 to 100 scale): 0
[18]; [21]
  Wheat plant response rating: 0
[19]
  Plant response rating, Sedge, Umbrella: 0
[20]; [22]
  Foxtail, Giant plant response rating: 0
[20]; [23]
  Plant response rating, Foxtail, Giant: 0
